Key:
[1] = tested on: choroidal neovascularization (CNV); assay: Prevention model for CNV (treatment begun before laser-induced retinal injury in mice); type: in vivo; details: oral twice daily from one day before retinal burning, 100 mg/kg Example 1, 45 mg/kg Example 3, or both, read fourteen days after burning, FIG. 2
Experimental: See the Examples section for additional information.
(§1) Mice were anesthetized and the pupils were dilated. Burns of krypton laser photocoagulation were delivered to the retina. Administration of the compound described in Example 1 was initiated seven days after the laser-induced injury. Oral doses of either the vehicle alone or vehicle containing the compound of formula (I) (designated as VEGF R in FIG. 1) at a dose or 4 mg/kg, 20 mg/kg, or 100 mg/kg were administered twice daily for seven days. After seven day of treatment, the mice were perfused with fluorescein-labeled dextran, and the area of choroidal neovascularization was quantitated.
In this experiment, the compound described in Example 1 (Designated as VEGF R in FIG. 2), Example 3 (designated as vitronectin in FIG. 2), or a combination of the compounds described in Example 1 and Example 3 (designated as “both” in FIG. 2) were administered to each mouse beginning one day before retinal burning was performed according to the methods described in Example 4. The compounds were administered orally twice daily at a dosage of 100 mg/kg for the compound of Example 1 or 45 mg/kg for the compound of Example 3. Fourteen days after the retinal burning, the CNV area was quantitated as described above.

[2] = tested on: choroidal neovascularization (CNV); assay: Regression model for CNV (laser-induced choroidal neovascularization in mice); type: in vivo; details: oral 4, 20 or 100 mg/kg twice daily for seven days, started seven days after laser-induced injury, compared with vehicle/untreated
Description: In this regression model, CNV was induced in mice by laser burns on the posterior pole of the retina. Seven days after the laser-induced injury, the mice began a regime in which they were given either vehicle alone or 5-[[4-[(2,3-Dimethyl-2H-indazol-6-yl)methylamino]-2-pyrimidinyl]amino]-2-methylbenzenesulfonamide at the indicated doses. Seven days after this regime was initiated, the size of the CNV lesions was quantitated. See the Examples section for additional information.
as §1

## Cc1ccc(Nc2nccc(N(C)c3ccc4c(C)n(C)nc4c3)n2)cc1S(N)(=O)=O [pazopanib, 5-({4-[(2,3-dimethyl-2H-indazol-6-yl)(methyl)amino]pyrimidin-2-yl}amino)-2-methylbenzenesulfonamide]
[1]
  CNV area (size of choroidal neovascular lesions): a decrease in size of the resulting choroidal neovascular lesions
[2]; FIG. 1
  area of choroidal neovascularization (size of CNV lesions): a decrease in the size of the resulting choroidal neovascular lesions
[2]; FIG. 1, listed as Pazopanib
  area of choroidal neovascularization (size of CNV lesions): decreased the CNV area in a dose-specific manner

## O=C(O)C[C@@H]1Cc2ccc(OCCCNc3ccccn3)cc2CN(CC(F)(F)F)C1=O [Example 3, (S)-3-oxo-8-[3-(pyridin-2-ylamino)-1-propyloxy]-2-(2,2,2-trifluoroethyl)-2,3,4,5-tetrahydro-1H-2-benzazepine-4-acetic acid]
[1]
  CNV area (size of choroidal neovascular lesions): a decrease in size of the resulting choroidal neovascular lesions

From patent publication US20080293691A1, “Treatment Method” (SMITHKLINE BEECHAM CORPORATION, priority 2005, published 2008)
